Measured values from US7858597B2, “Preparation of formulations of angiotensin II AT1 receptors antagonists for the treatment of arterial hypertension, other cardiovascular illnesses and its complications” (Universidade Federal De Mimas Gerais - UFMG, priority 2001, dated 2010).
Read-outs that look alike come from different tables or passages of the source.

Tests used:
[1] = cited from earlier work
[2] = cited from earlier work; remark: listed apart in the source
pressor effect of Ang II [3] = experiment: Pressor effect of Ang II in rats after losartan or losartan included in cyclodextrin (gavage); assay type: in vivo; conditions: losartan 0.2 mg/Kg, tested 2, 6, 24 and 48 hours after
pressor effect of Ang II [4] = experiment: Pressor effect of Ang II in rats after subcutaneous losartan or losartan incorporated in biodegradable polymer (telemetric recording of arterial pressure); assay type: in vivo; conditions: losartan 0.7 mg
Experimental: Male rats weighing (330-350 g) instrumented for telemetric recording of arterial pressure (Data Science System) were anesthetized and submitted to the implantation of […] femoral vein. […] Injections of Ang II were made after 2, 8 and 24 hours and then at intervals of 24 hours, for 15 days.

[5] = cited from earlier work; remark: listed apart in the source
[6] = cited from earlier work; remark: listed apart in the source
[7] = target: T1, ANGIOTENSIN II AT1 receptor (Homo sapiens, UniProt P30556); conditions: cited from earlier work
T1 sequence (P30556 1-359): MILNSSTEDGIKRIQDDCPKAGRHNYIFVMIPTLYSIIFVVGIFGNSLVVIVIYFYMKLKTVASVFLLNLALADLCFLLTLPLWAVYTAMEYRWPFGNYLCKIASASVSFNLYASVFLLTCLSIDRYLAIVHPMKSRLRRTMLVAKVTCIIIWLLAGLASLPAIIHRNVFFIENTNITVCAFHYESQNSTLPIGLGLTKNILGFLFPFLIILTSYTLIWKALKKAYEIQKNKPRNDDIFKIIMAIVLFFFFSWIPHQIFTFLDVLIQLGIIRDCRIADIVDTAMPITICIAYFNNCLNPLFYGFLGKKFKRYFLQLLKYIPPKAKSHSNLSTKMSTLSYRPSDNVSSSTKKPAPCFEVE

## CCCc1nc2c(C)cc(-c3nc4ccccc4n3C)cc2n1Cc1ccc(-c2ccccc2C(=O)O)cc1 [Telmisartan]
[1]; in vivo
  bioavailability: 45%
  excreted by the bile: 97%

## CCCCc1nc(Cl)c(CO)n1Cc1ccc(-c2ccccc2-c2nn[nH]n2)cc1 [Losartan]
[2]; in alcohol
  solubility: soluble
[2]; in common organic solvents, such as acetonitrile and methyl-ethyl-cetone
  solubility: slightly soluble
[2]; in water
  solubility: soluble
[1]; in vivo
  half-life: about two
[1]; oral dose
  excreted as EXP-3174: 8%
  excreted with the losartan: 5%
Pressor effect of Ang II [3]
  duration of blockade of the pressor effect of Ang II: about 8 hours
Pressor effect of Ang II [4]
  duration of blockade of the Ang II effect: about 8 hours

## CCOC(=O)[C@H](C)C[C@@H](C)C(=O)N1c2ccccc2C[C@H]1C(=O)O [Pentopril]
[5]
  stability in the human plasma: highly stable

## CCOc1nc2cccc(C(=O)O)c2n1Cc1ccc(-c2ccccc2-c2nnn[nH]2)cc1 [Candesartan]
[1]; in vivo
  bioavailability: about 40%
  half-life: 9 h

## CC[C@H](C)[C@H](NC(=O)[C@H](CCC(N)=O)NC(=O)[C@@H]1CCCN1C(=O)[C@H](CCCNC(=N)N)NC(=O)[C@@H]1CCCN1C(=O)[C@H](Cc1c[nH]c2ccccc12)NC(=O)[C@@H]1CCC(=O)N1)C(=O)N1CCC[C@H]1C(=O)N1CCC[C@H]1C(=O)O [teprotide]
[6]; intravenous route
  anti-hypertensive action: has an anti-hypertensive action
[6]; oral route
  anti-hypertensive action: inactive

## CCCCc1nc(Cl)c(CC(=O)[O-])n1Cc1ccccc1Cl.[Na+] [S-8307]
[7]
  binding / affinity for the Ang II AT1 receptor: weak binding

## CCCCC(=O)N(Cc1ccc(-c2ccccc2-c2nnn[nH]2)cc1)[C@H](C(=O)O)C(C)C [Valsartan, 1-oxopentyl-N′[[2′-(1H-tetrazole-5-yl)[1,1′-biphenyl]-4-yl]methyl]-L-vaniline]
[1]; in vivo
  half-life: 9 h
  time to peak of maximum concentration: about 2 hours

## CCCCc1nc(Cl)c(CC(=O)[O-])n1Cc1ccccc1[N+](=O)[O-].[Na+] [S-8308]
[7]
  binding / affinity for the Ang II AT1 receptor: weak binding

## CCCCC1=NC2(CCCC2)C(=O)N1Cc1ccc(-c2ccccc2-c2nnn[nH]2)cc1 [Irbersartan]
[1]; in vivo
  excreted by the bile: 80%

## CCCCc1ncc(/C=C(\Cc2cccs2)C(=O)O)n1Cc1ccc(C(=O)O)cc1 [Eprosartan, (E)-a-[[2-butyl-1-[(4-carboxyphenyl)metyl]-1H-imidazol-5-yl]methylene]-2-thiofenepropanoic acid]
[1]; in vivo
  eliminated through the feces: Approximately 90%
  time to peak of maximum concentration: about 2 hours
[7]
  binding / affinity for the Ang II AT1 receptor: high affinity
